Test results from patent publication US11884710B2, “Peptide compounds and methods of use in wound healing” (priority 2013, dated 2024).

B1: CAP37: cationic antimicrobial protein of Mr 37 kDa; recombinant CAP37 produced in human embryonic kidney (HEK) 293 cells (protein)
chain: IVGGRKARPRQFPFLASIQNQGRHFCGGALIHARFVMTAASCFQSQNPGVSTVVLGAYDLRRRERQSRQTFSISSMSENGYDPQQNLNDLMLLQLDREANLTSSVTILPLPLQNATVEAGTRCQVAGWGSQRSGGRLSRFPRFVNVTVTPEDQCRPNNVCTGVLTRRGGICNGDGGTPLVCEGLAHGVASFSLGPCGRGPDFFTRVALFRDWIDGVLNNPGP

What was measured:
[1] = tested on: cytokines in corneal lysates; test: Corneal cytokines after intrastromal injection (MILLIPLEX MAP mouse cytokine assay); format: in vivo; details: intrastromal 0.5 μl, 10^−4, 10^−5, 10^−6 M; 24 and 48 hours
Method: Corneas were injected intrastromally with 0.5 μl of peptide 95-122 at a final concentration of 10^−4 M, 10^−5 M, and 10^−6 M and vehicle (saline) control. Corneas were collected and flash frozen at 24 hours and 48 hours. Corneal lysates were analyzed for cytokines using the MILLIPLEX® MAP mouse cytokine assay for IL-7(A), IL-15 (B), IFN-γ (C), MIP1-α (D) (EMD Millipore Corp., Billerica, Mass.). The means of independent experimental values are shown±SEM. ***P<0.001, **P<0.01, *P<0.05 by unpaired t-test as compared to vehicle treated controls. […] Corneas were injected intrastromally with 0.5 μl of peptide 95-122 at a final concentration of 10^−4 M, 10^−5 M, and 10^−6 M and vehicle (saline) control. Corneas were collected and flash frozen at 24 hours and 48 hours. Corneal lysates were analyzed for cytokines using the MILLIPLEX® MAP mouse cytokine assay for MIP1-β (EMD Millipore Corp., Billerica, Mass.). **P<0.01, *P<0.05 by unpaired t-test as compared to vehicle treated controls. […] Corneas were injected intrastromally with 0.5 μl of peptide 95-122 at a final concentration of 10^−4 M, 10^−5 M, and 10^−6 M and vehicle (saline) control. Corneas were collected and flash frozen at 24 hours and 48 hours. Corneal lysates were analyzed for cytokines using the MILLIPLEX® MAP mouse cytokine assay for KC (A), IL-1β (B), and GM-CSF (C) (EMD Millipore Corp., Billerica, Mass.). **P<0.01, *P<0.05 by unpaired t-test as compared to vehicle treated controls.

PKCδ = test: Immunohistochemistry for PKCδ in corneal wounds in vivo; parameters: species or system mouse; details: rCAP37 250 ng/ml; sections at 6 hours
Method: Mice corneas were wounded using the AlgerBrush II and treated at 0 and 16 hours with vehicle (normal saline; (A-C)) or rCAP37 (250 ng/ml; (D-F)). Whole eye globes were enucleated at 6 hours (A, B, D, E), 16 hours (C, F), and 48 hours (H) post-wounding, and sections were stained for PKCδ. Representative images show constitutive staining for PKCδ in unwounded corneas (G). […] Pronounced staining for PKCδ was seen along the leading wound edge (↓) in CAP37-treated corneas at 6 hours (D, E) and 16 hours (F). […] Scale bars, 100 μm.
Immunohistochemistry: Whole mouse eyes were collected, fixed, embedded, and cut as previously described. Antigen retrieval was performed by treating sections with Rodent Decloaker (BioCare Medical, Concord, Calif.) and steaming them for 20 minutes before cooling with deionized water for 20 minutes. Sections were blocked for 30 minutes in Rodent Blocker M (BioCare Medical, Concord, Calif.), washed three times for 5 minutes per wash in deionized water, and blocked in peroxide block (Cell Marque, Rocklin, Calif.) for 10 minutes. Sections were then washed three times for 5 minutes in deionized water and incubated overnight at 4° C. with rabbit anti-PKCδ (4 μg/ml; Santa Cruz Biotechnology, Inc. Santa Cruz, Calif.). Sections incubated with rabbit IgG (Cell Signaling Technology, Danvers, Mass.) overnight at 4° C. served as controls for nonspecific staining. […]

HCEC monolayers = test: In vitro scratch assay of HCEC monolayers; format: cell-based, human
Method: (A) HCECs were grown to confluency and scratched using a 10 μl pipette tip. Scratched HCEC monolayers were treated with HB-EGF (250 ng/ml) or rCAP37 (25-2000 ng/ml), or were left untreated in basal Keratinocyte Serum Free Medium (KSFM). Wound closure was monitored at 0, 18, 24, and 48 hours utilizing a camera-equipped inverted microscope. The histogram represents data acquired at 48 hours, and the values are the mean±SEM of the percentage of wound closure. The data are representative of at least 4 independent experiments. The percentage of wound closure in treated monolayers was compared to untreated controls by one-way analysis of variance (ANOVA) followed by Dunnett's multiple comparison test, **P<0.01, *P<0.05. (B) Representative images of scratched monolayers treated with buffer control, HB-EGF, and rCAP37 (at 25, 100, and 250 ng/ml) are shown for each time point. Images were taken at 20× objective.
In vitro model of wound healing: An in vitro scratch assay was used in order to determine the ability of rCAP37 to facilitate corneal wound healing. Human corneal epithelial cells were cultured as described above until they reached a confluent monolayer. Each monolayer was scratched using a 10 μl pipette tip to create two perpendicular lines. Monolayers were treated with heparin binding-epidermal growth factor (HB-EGF, 250 ng/ml; Becton Dickinson), rCAP37 (25-2000 ng/ml), or basal KSFM (Gibco). Wound closure was monitored at 0, 18, 24, and 48 hours utilizing a camera-equipped inverted microscope (TE2000-E; Nikon, Melville, N.Y.). Time-lapse images of in vitro wound closure were obtained using a camera-equipped inverted microscope (TE2000-E; Nikon) from […]. HCEC monolayers were treated with HB-EGF, rCAP37, and basal KSFM as described above. The width of each scratch was quantitated using ImageJ software (US National Institutes of Health, Bethesda, Md.). Results are presented as the percentage of wound closure.

Molecule | GM-CSF in corneal lysates [1] | IFN-γ in corneal lysates [1] | IL-7 in corneal lysates [1] | IL-10 in corneal lysates [1] | IL-15 in corneal lysates [1] | KC in corneal lysates [1] | MIP1-α in corneal lysates [1] | MIP1-β in corneal lysates [1] | PKCδ staining of corneal sections, in words (PKCδ) | percentage wound closure (HCEC monolayers; CAP37 250 ng/ml, at 18 hours) [%] | percentage wound closure (HCEC monolayers; CAP37 500 ng/ml) | time to complete closure of scratch wounds (HCEC monolayers; HB-EGF 250 ng/ml, CAP37 250 ng/ml) [h]
LDREANLTSSVTILPLPLQNATVEAGTR (listed as Homo sapiens) [Peptide 95-122] | significantly increases | significantly increases | significantly increases | significantly increases | significantly increases | significantly increases | significantly increases | significantly increases | – | – | – | –
B1 | – | – | – | – | – | – | – | – | strong staining for PKCδ | ~71 | approximately 62% | 24 to 48
